Assay results as given in paper PMC8657435, “Adamantane-Substituted Purines and Their β-Cyclodextrin Complexes: Synthesis and Biological Activity” (International Journal of Molecular Sciences, 2021).
Where “and” joins values, the source holds several entries; their conditions need not be identical. Equal values may be shown once. Read-outs that look alike come from different tables or passages of the source.

How the values were obtained:
K-562 [1] = experiment: In vitro cytotoxicity / antiproliferative activity, resazurin viability assay, 72 h; type: cell-based, human
CDK2/cyclin E [2] = target: T1, CDK2/cyclin E (Homo sapiens, UniProt P24941); experiment: CDK2/cyclin E kinase inhibition assay ([γ-33P]ATP, peptide substrate); type: biochemical
Procedure: CDK2/cyclin E activity was assayed as previously described. Briefly, the kinase was assayed with [γ-^33P]ATP and suitable peptide substrates in a reaction buffer (60 mM HEPES-NaOH, pH 7.5, 3 mM MgCl2, 3 mM MnCl2, 3 μM Na-orthovanadate, 1.2 mM DTT, 2.5 μg/50 μL PEG20.000). The reactions were stopped by adding 5 µL of 3% aq. H3PO4. Aliquots were spotted onto P-81 phosphocellulose, washed with 0.5% aq. H3PO4 and air-dried. Kinase inhibition was quantified using an FLA-7000 digital image analyser.

MCF-7 [3] = experiment: In vitro cytotoxicity / antiproliferative activity, resazurin viability assay, 72 h; type: cell-based, human
MCF-7 [4] = system: MCF-7; parameters: method as in Popowycz et al. [51]; conditions: single purine; ref Popowycz et al. [51]; cited from earlier work
K-562 [5] = system: K-562; parameters: method as in Popowycz et al. [51]; conditions: single purine; ref Popowycz et al. [51]; cited from earlier work
CDK1 = system: CDK1; parameters: method as in PMID 24900429; conditions: no inhibition activity; read-out: IC50 towards CDK1; cited from earlier work
CDK2/cyclin E [6] = target: T1, CDK2/cyclin E; conditions: Figure 1; cited from earlier work
CDK2 = conditions: no inhibition activity; read-out: IC50 towards CDK2; cited from earlier work
[7] = Homo sapiens, K562, single purine, 72 h, read-out: K-562 GI50, Purine
[8] = mixture purine·β-CD 1:1, 72 h, read-out: K-562 GI50, Purine·β-CD (1:1)
[9] = mixture purine·β-CD 1:10, 72 h, read-out: K-562 GI50, Purine·β-CD (1:10)
[10] = mixture purine·β-CD 1:1 molar ratio, read-out: CDK2/Cyclin E IC50, Purine·β-CD (1:1)
[11] = mixture purine·β-CD 1:10 molar ratio, read-out: CDK2/Cyclin E IC50, Purine·β-CD (1:10)
[12] = single purine, no β-CD, mean ± SD of duplicated experiments, read-out: CDK2/Cyclin E IC50, Purine
[13] = Homo sapiens, MCF7, single purine, 72 h, read-out: MCF-7 GI50, Purine
[14] = mixture purine·β-CD 1:1, 72 h, read-out: MCF-7 GI50, Purine·β-CD (1:1)
[15] = mixture purine·β-CD 1:10, 72 h, read-out: MCF-7 GI50, Purine·β-CD (1:10)
[16] = mixture purine·β-CD 1:1 molar ratio
[17] = mixture purine·β-CD 1:10 molar ratio
[18] = single purine, no β-CD, mean ± SD of duplicated experiments

CC(C)n1cnc2c(Nc3cccc(C(=O)C45CC6CC(CC(C6)C4)C5)c3)nc(NCCCO)nc21 [Compound 4a, (1-Adamantyl)[3-({2-[(3-hydroxypropyl)amino]-9-isopropyl-9H-purin-6-yl}amino)phenyl]methanone]
GI50 (K-562 [1]; [7]): 6.16 µM
GI50 (K-562 [1]; [8]): 15 ± 0.16 µM
GI50 (K-562 [1]; [9]): > 40 µM
IC50 (CDK2/cyclin E [2]; [10]): 5.5 ± 1.3 µM
IC50 (CDK2/cyclin E [2]; [11]): > 40 µM
IC50 (CDK2/cyclin E [2]; [12]): 2.55 ± 0.08 µM
GI50 (MCF-7 [3]; [13]): > 6.25 µM
GI50 (MCF-7 [3]; [14]): 15.7 ± 0.9 µM
GI50 (MCF-7 [3]; [15]): > 40 µM

CC(C)n1cnc2c(Nc3cccc(C(O)C45CC6CC(CC(C6)C4)C5)c3)nc(NCCCO)nc21 (stereo not drawn) [Compound 4b, 3-{[6-({3-[1-Adamantyl(hydroxy)methyl]phenyl}amino)-9-isopropyl-9H-purin-2-yl]amino}propan-1-ol]
GI50 (K-562 [1]; [7]): > 6.25 µM
GI50 (K-562 [1]; [8]): 34.69 ± 0.14 µM
GI50 (K-562 [1]; [9]): > 40 µM
CDK2/Cyclin E IC50, Purine·β-CD (1:1) (CDK2/cyclin E [2]; [16]): essentially consistent with their non-complexed forms
IC50 (CDK2/cyclin E [2]; [10]): 0.16 µM
IC50 (CDK2/cyclin E [2]; [11]): 0.3 ± 0.2 µM
IC50 (CDK2/cyclin E [2]; [12]): 0.21 ± 0.02 µM
Activity on CDK2/cyclin E, fold higher than bohemine (CDK2/cyclin E [2]; single purine, versus bohemine (4k)): 3.5 fold
GI50 (MCF-7 [3]; [13]): > 6.25 µM
GI50 (MCF-7 [3]; [14]): 32 ± 3 µM
GI50 (MCF-7 [3]; [15]): > 40 µM
melting point: 88 to 93 °C

CC(C)n1cnc2c(Nc3cccc(CC45CC6CC(CC(C6)C4)C5)c3)nc(NCCCO)nc21 [Compound 4c, 3-{[6-{[3-(1-Adamantylmethyl)phenyl]amino}-9-isopropyl-9H-purin-2-yl]amino}propan-1-ol]
GI50 (K-562 [1]; [7]): > 6.25 µM
GI50 (K-562 [1]; [8]): 28.7 ± 10.2 µM
GI50 (K-562 [1]; [9]): > 40 µM
IC50 (CDK2/cyclin E [2]; [10]): 1.85 µM
IC50 (CDK2/cyclin E [2]; [11]): > 40 µM
IC50 (CDK2/cyclin E [2]; [12]): > 10 µM and 12 µM
GI50 (MCF-7 [3]; [13]): > 6.25 µM
GI50 (MCF-7 [3]; [14]): > 40 µM
GI50 (MCF-7 [3]; [15]): > 40 µM
melting point: 88 to 93 °C

CC(C)n1cnc2c(Nc3ccc(C(=O)C45CC6CC(CC(C6)C4)C5)cc3)nc(NCCCO)nc21 [Compound 4d, (1-Adamantyl)[4-({2-[(3-hydroxypropyl)amino]-9-isopropyl-9H-purin-6-yl}amino)phenyl]methanone]
GI50 (K-562 [1]; [7]): 5.45 µM
GI50 (K-562 [1]; [8]): 16.5 ± 0.7 µM
GI50 (K-562 [1]; [9]): > 40 µM
Fold more potent at inhibiting cell proliferation on K-562 than bohemine (K-562 [1]; single purine): 17.8 fold
Fold more potent at inhibiting cell proliferation on K-562 than roscovitine (K-562 [1]; single purine): 9.2 fold
IC50 (CDK2/cyclin E [2]; [10]): 1.4 ± 0.5 µM
IC50 (CDK2/cyclin E [2]; [11]): 7.57 µM
IC50 (CDK2/cyclin E [2]; [12]): 0.6 ± 0.2 µM
IC50 (CDK2/cyclin E [2]; single purine, read-out: CDK2/cyclin E IC50): 0.58 µM
GI50 (MCF-7 [3]; [13]): 5.72 µM
GI50 (MCF-7 [3]; [14]): 13.8 ± 1.4 µM
GI50 (MCF-7 [3]; [15]): > 40 µM
Efficacy on MCF-7, fold higher than bohemine (MCF-7 [3]; single purine): 4.7 fold
Efficacy on MCF-7, fold higher than roscovitine (MCF-7 [3]; single purine): 2.2 fold

CC(C)n1cnc2c(Nc3ccc(C(O)C45CC6CC(CC(C6)C4)C5)cc3)nc(NCCCO)nc21 (stereo not drawn) [Compound 4e, 3-{[6-({4-[1-Adamantyl(hydroxy)methyl]phenyl}amino)-9-isopropyl-9H-purin-2-yl]amino}propan-1-ol]
GI50 (K-562 [1]; [7]): 10.1 ± 0.8 µM
GI50 (K-562 [1]; [8]): 18.7 ± 0.6 µM
GI50 (K-562 [1]; [9]): > 40 µM
CDK2/Cyclin E IC50, Purine·β-CD (1:1) (CDK2/cyclin E [2]; [16]): essentially consistent with their non-complexed forms
IC50 (CDK2/cyclin E [2]; [10]): 1.53 µM
IC50 (CDK2/cyclin E [2]; [11]): 26.1 µM
IC50 (CDK2/cyclin E [2]; [12]): 1.6 ± 0.7 µM
GI50 (MCF-7 [3]; [13]): 8.1 ± 0.7 µM
GI50 (MCF-7 [3]; [14]): 17 ± 2 µM
GI50 (MCF-7 [3]; [15]): > 40 µM

CC(C)n1cnc2c(Nc3ccc(CC45CC6CC(CC(C6)C4)C5)cc3)nc(NCCCO)nc21 [Compound 4f, 3-{[6-{[4-(1-Adamantylmethyl)phenyl]amino}-9-isopropyl-9H-purin-2-yl]amino}propan-1-ol]
GI50 (K-562 [1]; [7]): 10.4 ± 0.7 µM
GI50 (K-562 [1]; [8]): 24 ± 3 µM
GI50 (K-562 [1]; [9]): > 40 µM
CDK2/Cyclin E IC50, Purine·β-CD (1:1) (CDK2/cyclin E [2]; [16]): no activity
IC50 (CDK2/cyclin E [2]; [10]): > 40 µM
CDK2/Cyclin E IC50, Purine·β-CD (1:10) (CDK2/cyclin E [2]; [17]): no activity
IC50 (CDK2/cyclin E [2]; [11]): > 40 µM
CDK2/Cyclin E IC50, Purine (CDK2/cyclin E [2]; [18]): no activity
IC50 (CDK2/cyclin E [2]; [12]): > 12.5 µM
GI50 (MCF-7 [3]; [13]): > 12.5 µM
GI50 (MCF-7 [3]; [14]): 32.9 ± 0.1 µM
GI50 (MCF-7 [3]; [15]): > 40 µM

CC(C)n1cnc2c(Nc3cccc(C(O)CC45CC6CC(CC(C6)C4)C5)c3)nc(NCCCO)nc21 (stereo not drawn) [Compound 4g, 3-{[6-({3-[2-(1-Adamantyl)-1-hydroxyethyl]phenyl}amino)-9-isopropyl-9H-purin-2-yl]amino}propan-1-ol]
GI50 (K-562 [1]; [7]): > 6.25 µM
GI50 (K-562 [1]; [8]): 33.6 ± 1.2 µM
GI50 (K-562 [1]; [9]): > 40 µM
CDK2/Cyclin E IC50, Purine·β-CD (1:1) (CDK2/cyclin E [2]; [16]): essentially consistent with their non-complexed forms
IC50 (CDK2/cyclin E [2]; [10]): 1.24 µM
IC50 (CDK2/cyclin E [2]; [11]): 7.15 µM
IC50 (CDK2/cyclin E [2]; [12]): 0.92 ± 0.18 µM
GI50 (MCF-7 [3]; [13]): > 6.25 µM
GI50 (MCF-7 [3]; [14]): 17 ± 2 µM
GI50 (MCF-7 [3]; [15]): > 40 µM
melting point: 87 to 91 °C

CC(C)n1cnc2c(Nc3cccc(CCC45CC6CC(CC(C6)C4)C5)c3)nc(NCCCO)nc21 [Compound 4h, 3-{[6-({3-[2-(1-Adamantyl)ethyl]phenyl}amino)-9-isopropyl-9H-purin-2-yl]amino}propan-1-ol]
GI50 (K-562 [1]; [7]): > 12.5 µM
GI50 (K-562 [1]; [8]): > 40 µM
GI50 (K-562 [1]; [9]): > 40 µM
CDK2/Cyclin E IC50, Purine·β-CD (1:1) (CDK2/cyclin E [2]; [16]): no activity
IC50 (CDK2/cyclin E [2]; [10]): > 40 µM
CDK2/Cyclin E IC50, Purine·β-CD (1:10) (CDK2/cyclin E [2]; [17]): no activity
IC50 (CDK2/cyclin E [2]; [11]): > 40 µM
CDK2/Cyclin E IC50, Purine (CDK2/cyclin E [2]; [18]): no activity
IC50 (CDK2/cyclin E [2]; [12]): > 12.5 µM
GI50 (MCF-7 [3]; [13]): > 12.5 µM
GI50 (MCF-7 [3]; [14]): > 40 µM
GI50 (MCF-7 [3]; [15]): > 40 µM
melting point: 72 to 78 °C

CC(C)n1cnc2c(NCc3cccc(C(=O)CC45CC6CC(CC(C6)C4)C5)c3)nc(NCCCO)nc21 [Compound 4i]
GI50 (K-562 [1]; [7]): > 6.25 µM
GI50 (K-562 [1]; [8]): 19.8 ± 0.5 µM
GI50 (K-562 [1]; [9]): > 40 µM
IC50 (CDK2/cyclin E [2]; [10]): > 40 µM
IC50 (CDK2/cyclin E [2]; [11]): 30.7 µM
IC50 (CDK2/cyclin E [2]; [12]): > 10 µM and 14 µM
GI50 (MCF-7 [3]; [13]): > 6.25 µM
GI50 (MCF-7 [3]; [14]): 30 ± 5 µM
GI50 (MCF-7 [3]; [15]): > 40 µM
melting point: 64 to 69 °C

CC(C)n1cnc2c(NCc3ccc(C(=O)CC45CC6CC(CC(C6)C4)C5)cc3)nc(NCCCO)nc21 [Compound 4j]
GI50 (K-562 [1]; [7]): > 6.25 µM
GI50 (K-562 [1]; [8]): 17.7 ± 0.6 µM
GI50 (K-562 [1]; [9]): > 40 µM
IC50 (CDK2/cyclin E [2]; [10]): 15.7 µM
IC50 (CDK2/cyclin E [2]; [11]): 20.9 µM
IC50 (CDK2/cyclin E [2]; [12]): 3.26 ± 0.01 µM
Activity on CDK2/cyclin E, fold higher than meta-analogue 4i (CDK2/cyclin E [2]; single purine, para versus meta): 4.3 fold
GI50 (MCF-7 [3]; [13]): > 6.25 µM
GI50 (MCF-7 [3]; [14]): 21.51 ± 0.04 µM
GI50 (MCF-7 [3]; [15]): > 40 µM

CC[C@H](CO)Nc1nc(NCc2ccccc2)c2ncn(C(C)C)c2n1 [Compound 4l, roscovitine]
GI50 (MCF-7 [4]): 12.6 µM
GI50 (K-562 [5]): 50.1 µM

CC(C)n1cnc2c(NC34CC5CC(CC(C5)C3)C4)nc(NCCCO)nc21 [Compound 4m, 6-[(1-adamantyl)amino]-2-[(3-hydroxypropyl)amino]-9-(propan-2-yl)purine]
IC50 (CDK1): > 100 µM
IC50 (CDK2/cyclin E [6]): > 100 µM
IC50 (CDK2): > 100 µM

CC(C)n1cnc2c(NC34CC5CC(CC(C5)C3)C4)nc(NCC(O)CO)nc21 (stereo not drawn) [Compound 4n]
IC50 (CDK2/cyclin E [6]): > 100 µM
